From ChEMBL document CHEMBL5518208 (J Med Chem, 2024) come the findings set out here.

Common to all, as to assay type: ADME, organism-based
The nature of data set [1]: Half life in male ICR mouse at 5 mg/kg, iv measured upto 24 hrs by LC-MS/MS analysis. The settings on record: in vivo.
A short description of data set [2]: AUC last in male ICR mouse at 5 mg/kg, iv measured upto 24 hrs by LC-MS/MS analysis. The conditions noted are these: in vivo.
Data set [3] in a line: Observed AUC infinity in male ICR mouse at 5 mg/kg, iv measured upto 24 hrs by LC-MS/MS analysis. The conditions noted are these: in vivo.
The nature of data set [4]: Observed clearance in male ICR mouse at 5 mg/kg, iv measured upto 24 hrs by LC-MS/MS analysis. The settings on record: in vivo.
A short description of data set [5]: Observed MRT infinity in male ICR mouse at 5 mg/kg, iv measured upto 24 hrs by LC-MS/MS analysis. The settings on record: in vivo.
The nature of data set [6]: Observed volume of distribution at steady state in male ICR mouse at 5 mg/kg, iv measured upto 24 hrs by LC-MS/MS analysis. The conditions noted are these: in vivo, read-out: Vdss.
The nature of data set [7]: Half life in male ICR mouse at 25 mg/kg, po measured upto 24 hrs by LC-MS/MS analysis. The conditions noted are these: in vivo.
The nature of data set [8]: Tmax in male ICR mouse at 25 mg/kg, po measured upto 24 hrs by LC-MS/MS analysis. The settings on record: in vivo.
Data set [9] is described as follows: Cmax in male ICR mouse at 25 mg/kg, po measured upto 24 hrs by LC-MS/MS analysis. The conditions noted are these: in vivo.
Data set [10] is described as follows: AUC last in male ICR mouse at 25 mg/kg, po measured upto 24 hrs by LC-MS/MS analysis. The conditions noted are these: in vivo.
Data set [11] is described as follows: Observed AUC infinity in male ICR mouse at 25 mg/kg, po measured upto 24 hrs by LC-MS/MS analysis. The settings on record: in vivo.
Data set [12] can be described thus: Observed MRT infinity in male ICR mouse at 25 mg/kg, po measured upto 24 hrs by LC-MS/MS analysis. The conditions noted are these: in vivo.
Data set [13] is described as follows: Drug concentration in BALB/c mouse plasma at 100 mg/kg, sc measured after 0.5 hrs by LC-MS/MS analysis.
The nature of data set [14]: Drug concentration in BALB/c mouse plasma at 100 mg/kg, sc measured after 1 hrs by LC-MS/MS analysis.
Data set [15] can be described thus: Drug concentration in BALB/c mouse plasma at 100 mg/kg, sc measured after 2 hrs by LC-MS/MS analysis.
A short description of data set [16]: Drug concentration in BALB/c mouse plasma at 100 mg/kg, sc measured after 4 hrs by LC-MS/MS analysis.

On to `O=c1ccc2c(N3C[C@@H]4[C@@H](CCP(=O)(O)O)[C@@H]4C3)ncnc2[nH]1`, for which the half-life was 60.6 min in data set [1] and 33.6 min in [7]. Also, the AUC(0-t) at 24 h in [2] turned out to be 4390 ng·h/mL; in data set [10], 932 ng·h/mL. For the same compound, the AUC(0-inf) stood at 4400 ng·h/mL in data set [3] and 965 ng·h/mL in data set [11]. The clearance in data set [4] came to 21.6 mL/min/kg. Further, the MRT inf was 18.6 min in data set [5] and 156 min in data set [12]. Besides, the Vd in data set [6] stood at 0.373 L/kg. In data set [8], the Tmax is 45 min. For the same compound, the highest level in data set [9] (Cmax) was 352 ng/mL. Further, in [13], the concentration at 0.5 h stood at 112 µM. In [14], this compound gave a concentration at 1 h of 26 µM. The compound further gave a concentration at 2 h in data set [15] of 1.5 µM. Moreover, the concentration at 4 h in data set [16] is 0.04 µM.

For orientation: half-life means the time in which the quantity being followed falls by half. Read a low half-life as fast loss. As usually defined, the AUC(0-t) is the area under the concentration-time curve up to a stated or last time point. Read a low AUC(0-t) as low exposure. Usually AUC(0-inf) stands for total exposure, with the tail of the curve extrapolated. Read a high AUC(0-inf) as more exposure. Usually clearance stands for the rate of elimination divided by the concentration. As usually defined, the MRT inf is the average time that molecules of a dose stay in the body. For orientation: Tmax means the time at which the peak concentration occurs. A word on the Cmax: it is the peak of the concentration-time curve.
